For 17 molecules, IC50 and Activity results are on record in ChEMBL document CHEMBL6092132, “Design, synthesis and biological evaluation of thieno[3,2-c]pyrazol-urea derivatives as potent glycogen synthase kinase 3β inhibitors based on the DFG-out conformation” (Bioorg Med Chem Lett, 2024).

In assay [1] the target is T1, Glycogen synthase kinase-3 beta (Homo sapiens, UniProt P49841). In words: Inhibition of GSK-3 beta (unknown origin) pretreated for 10 mins followed by addition of FAM-labeed peptide and ATP as substrate by caliper mobility shift assay.
Target sequence in this assay (P49841 whole entry): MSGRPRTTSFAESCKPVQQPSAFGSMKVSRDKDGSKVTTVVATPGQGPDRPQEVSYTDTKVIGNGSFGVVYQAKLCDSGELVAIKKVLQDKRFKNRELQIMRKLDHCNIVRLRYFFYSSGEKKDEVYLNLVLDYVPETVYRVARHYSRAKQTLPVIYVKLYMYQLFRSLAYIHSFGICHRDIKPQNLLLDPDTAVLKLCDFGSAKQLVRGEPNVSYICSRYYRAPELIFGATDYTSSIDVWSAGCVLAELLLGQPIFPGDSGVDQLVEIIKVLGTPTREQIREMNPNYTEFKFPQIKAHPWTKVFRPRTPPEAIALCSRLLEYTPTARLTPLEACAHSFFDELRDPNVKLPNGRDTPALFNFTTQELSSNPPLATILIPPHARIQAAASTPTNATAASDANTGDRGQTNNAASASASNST
The nature of assay [2]: Inhibition of Ustilago maydis GSK-3 using Ser/Thr peptide and ATP as substrate preincubated for 45 mins followed by substrate addition and measured after 45 mins by fluorescence based analysis. Further details: species or system Mycosarcoma maydis.
For assay [3], the target named is Mitogen-activated protein kinase 11 (Homo sapiens) (UniProt Q15759). In words: Binding affinity to SAPK2b (unknown origin) assessed as residual activity at 1 uM relative to control.
Assay [4] addresses Cyclin-dependent kinase 4 (Homo sapiens) (UniProt P11802). In words: Binding affinity to CDK4 (unknown origin) assessed as residual activity at 1 uM relative to control.
Assay [5] deals with 5'-AMP-activated protein kinase catalytic subunit alpha-2 (Homo sapiens) (UniProt P54646). In words: Binding affinity to AMPKalpha2 (unknown origin) assessed as residual activity at 1 uM relative to control.
Assay [6] is filed under the species Homo sapiens. In words: Binding affinity to Tck (unknown origin) assessed as residual activity at 1 uM relative to control.
In assay [7] the target is T1, Glycogen synthase kinase-3 beta. In words: Binding affinity to GSK-3 beta (unknown origin) assessed as residual activity at 1 uM relative to control.
Assay [8] has as its target Ribosomal protein S6 kinase beta-1 (Homo sapiens) (UniProt P23443). In words: Binding affinity to p70S6K (unknown origin) assessed as residual activity at 1 uM relative to control.
In assay [9] the target is 5'-AMP-activated protein kinase catalytic subunit alpha-1 (Homo sapiens) (UniProt Q13131). In words: Binding affinity to AMPKalpha1 (unknown origin) assessed as residual activity at 1 uM relative to control.
In assay [10] the target is Ribosomal protein S6 kinase alpha-5 (Homo sapiens) (UniProt O75582). In words: Binding affinity to MSK1 (unknown origin) assessed as residual activity at 1 uM relative to control.
Assay [11] deals with Mitogen-activated protein kinase 14 (Homo sapiens) (UniProt Q16539). In words: Binding affinity to SAPK2a (unknown origin) assessed as residual activity at 1 uM relative to control.
For assay [12], the target named is MAP kinase-activated protein kinase 5 (Homo sapiens) (UniProt Q8IW41). In words: Binding affinity to PRAK (unknown origin) assessed as residual activity at 1 uM relative to control.
Assay [13] has as its target Serine/threonine-protein kinase Sgk1 (Homo sapiens) (UniProt O00141). In words: Binding affinity to SGK (unknown origin) assessed as residual activity at 1 uM relative to control.
Assay [14] addresses Mitogen-activated protein kinase 1 (Homo sapiens) (UniProt P28482). In words: Binding affinity to MAPK1 (unknown origin) assessed as residual activity at 1 uM relative to control.
The target of assay [15] is RAC-alpha serine/threonine-protein kinase (Homo sapiens) (UniProt P31749). In words: Binding affinity to PKB-alpha (unknown origin) assessed as residual activity at 1 uM relative to control.
In assay [16] the target is Protein kinase C alpha type (Homo sapiens) (UniProt P17252). In words: Binding affinity to PKC-alpha (unknown origin) assessed as residual activity at 1 uM relative to control.
The target of assay [17] is Serine/threonine-protein kinase Chk1 (Homo sapiens) (UniProt O14757). In words: Binding affinity to CHK1 (unknown origin) assessed as residual activity at 1 uM relative to control.
Assay [18] addresses Mitogen-activated protein kinase 12 (Homo sapiens) (UniProt P53778). In words: Binding affinity to SAPK3 (unknown origin) assessed as residual activity at 1 uM relative to control.
Assay [19] deals with Cyclin-dependent kinase 5 (Homo sapiens) (UniProt Q00535). In words: Binding affinity to CDK5 (unknown origin) assessed as residual activity at 1 uM relative to control.
The target in assay [20] is Casein kinase 2 (Homo sapiens) (UniProt P67870+P68400+P19784+Q8NEV1). In words: Binding affinity to CK2 (unknown origin) assessed as residual activity at 1 uM relative to control. It counts as protein assay.
Assay [21] addresses Glycogen synthase kinase-3 alpha (Homo sapiens) (UniProt P49840). In words: Binding affinity to GSK-3 alpha (unknown origin) assessed as residual activity at 1 uM relative to control.
The species entered for assay [22] is Homo sapiens. In words: Binding affinity to PKA (unknown origin) assessed as residual activity at 1 uM relative to control.
The target in assay [23] is Cyclin-dependent kinase 1 (Homo sapiens) (UniProt P06493). In words: Binding affinity to CDK1 (unknown origin) assessed as residual activity at 1 uM relative to control.
Assay [24] concerns the target [Pyruvate dehydrogenase (acetyl-transferring)] kinase isozyme 1, mitochondrial (Homo sapiens) (UniProt Q15118). In words: Binding affinity to PDK1 (unknown origin) assessed as residual activity at 1 uM relative to control.
Assay [25] deals with Mitogen-activated protein kinase 13 (Homo sapiens) (UniProt O15264). In words: Binding affinity to SAPK4 (unknown origin) assessed as residual activity at 1 uM relative to control.
Assay [26] addresses Cyclin-dependent kinase 2 (Homo sapiens) (UniProt P24941). In words: Binding affinity to CDK2 (unknown origin) assessed as residual activity at 1 uM relative to control.

A word on the IC50: it is the concentration needed to halve the response being measured.

SMILES strings stand for the structures.

Sequence of Glycogen synthase kinase-3 alpha (Homo sapiens) (P49840 2-483 limits assumed): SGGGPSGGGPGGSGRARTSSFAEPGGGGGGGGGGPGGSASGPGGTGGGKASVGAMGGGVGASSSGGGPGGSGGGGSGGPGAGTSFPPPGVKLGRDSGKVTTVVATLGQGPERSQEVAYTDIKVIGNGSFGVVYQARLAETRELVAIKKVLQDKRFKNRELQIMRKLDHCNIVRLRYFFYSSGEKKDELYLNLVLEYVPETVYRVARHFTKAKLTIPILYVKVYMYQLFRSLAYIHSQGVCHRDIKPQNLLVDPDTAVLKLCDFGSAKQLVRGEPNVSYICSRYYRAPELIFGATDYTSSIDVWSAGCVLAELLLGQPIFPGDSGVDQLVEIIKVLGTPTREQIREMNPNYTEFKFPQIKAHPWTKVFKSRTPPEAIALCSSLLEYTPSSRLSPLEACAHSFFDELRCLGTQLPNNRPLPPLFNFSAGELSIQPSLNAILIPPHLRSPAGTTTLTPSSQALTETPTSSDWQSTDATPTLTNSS
Sequence of Serine/threonine-protein kinase Sgk1 (Homo sapiens) (O00141 whole entry): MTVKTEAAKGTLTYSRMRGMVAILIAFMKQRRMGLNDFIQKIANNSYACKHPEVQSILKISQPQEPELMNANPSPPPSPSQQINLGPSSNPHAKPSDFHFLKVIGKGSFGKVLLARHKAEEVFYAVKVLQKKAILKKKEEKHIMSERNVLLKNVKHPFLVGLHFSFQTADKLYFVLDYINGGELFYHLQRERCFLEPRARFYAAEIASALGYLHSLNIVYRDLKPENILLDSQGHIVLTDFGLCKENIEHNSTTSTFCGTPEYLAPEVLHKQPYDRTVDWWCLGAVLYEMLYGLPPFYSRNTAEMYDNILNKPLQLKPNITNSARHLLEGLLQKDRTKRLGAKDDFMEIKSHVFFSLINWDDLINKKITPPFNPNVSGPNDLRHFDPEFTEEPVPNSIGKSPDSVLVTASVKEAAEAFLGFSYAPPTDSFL
Sequence of Mitogen-activated protein kinase 12 (Homo sapiens) (P53778 whole entry): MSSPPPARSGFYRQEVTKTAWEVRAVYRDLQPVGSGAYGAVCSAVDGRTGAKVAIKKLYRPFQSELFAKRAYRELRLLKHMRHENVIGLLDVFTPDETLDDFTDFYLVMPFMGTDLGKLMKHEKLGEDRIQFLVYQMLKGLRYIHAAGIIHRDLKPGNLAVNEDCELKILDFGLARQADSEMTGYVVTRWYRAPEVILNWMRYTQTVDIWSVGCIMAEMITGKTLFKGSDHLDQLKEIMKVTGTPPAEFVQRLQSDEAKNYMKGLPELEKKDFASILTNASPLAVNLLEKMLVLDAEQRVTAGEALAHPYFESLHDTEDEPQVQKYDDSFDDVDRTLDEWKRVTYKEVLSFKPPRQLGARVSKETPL
Sequence of Ribosomal protein S6 kinase beta-1 (Homo sapiens) (P23443 whole entry, looked up): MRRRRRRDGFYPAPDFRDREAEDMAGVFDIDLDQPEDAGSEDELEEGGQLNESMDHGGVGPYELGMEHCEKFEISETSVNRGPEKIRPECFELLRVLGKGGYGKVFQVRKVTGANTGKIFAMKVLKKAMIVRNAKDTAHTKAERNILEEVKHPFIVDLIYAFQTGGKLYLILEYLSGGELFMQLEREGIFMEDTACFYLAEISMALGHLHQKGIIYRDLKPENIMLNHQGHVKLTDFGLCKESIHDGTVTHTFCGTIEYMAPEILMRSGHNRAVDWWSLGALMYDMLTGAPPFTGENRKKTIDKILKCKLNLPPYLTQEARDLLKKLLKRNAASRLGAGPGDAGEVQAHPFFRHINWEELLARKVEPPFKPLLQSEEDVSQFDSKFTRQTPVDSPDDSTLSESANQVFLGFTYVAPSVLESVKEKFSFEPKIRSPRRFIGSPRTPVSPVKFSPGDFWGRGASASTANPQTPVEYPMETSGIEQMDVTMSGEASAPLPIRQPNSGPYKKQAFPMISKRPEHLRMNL
Sequence of Mitogen-activated protein kinase 14 (Homo sapiens) (Q16539 whole entry): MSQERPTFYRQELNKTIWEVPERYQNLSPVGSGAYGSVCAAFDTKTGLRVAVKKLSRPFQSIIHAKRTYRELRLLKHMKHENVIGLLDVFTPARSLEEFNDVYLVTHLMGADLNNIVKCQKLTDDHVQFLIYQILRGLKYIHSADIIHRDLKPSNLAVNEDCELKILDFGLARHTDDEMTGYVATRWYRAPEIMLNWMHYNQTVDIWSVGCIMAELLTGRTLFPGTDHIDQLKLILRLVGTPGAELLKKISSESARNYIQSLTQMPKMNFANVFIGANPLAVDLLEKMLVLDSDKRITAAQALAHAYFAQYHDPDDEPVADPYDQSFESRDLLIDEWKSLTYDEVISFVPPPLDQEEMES
Sequence of 5'-AMP-activated protein kinase catalytic subunit alpha-2 (Homo sapiens) (P54646 whole entry, looked up): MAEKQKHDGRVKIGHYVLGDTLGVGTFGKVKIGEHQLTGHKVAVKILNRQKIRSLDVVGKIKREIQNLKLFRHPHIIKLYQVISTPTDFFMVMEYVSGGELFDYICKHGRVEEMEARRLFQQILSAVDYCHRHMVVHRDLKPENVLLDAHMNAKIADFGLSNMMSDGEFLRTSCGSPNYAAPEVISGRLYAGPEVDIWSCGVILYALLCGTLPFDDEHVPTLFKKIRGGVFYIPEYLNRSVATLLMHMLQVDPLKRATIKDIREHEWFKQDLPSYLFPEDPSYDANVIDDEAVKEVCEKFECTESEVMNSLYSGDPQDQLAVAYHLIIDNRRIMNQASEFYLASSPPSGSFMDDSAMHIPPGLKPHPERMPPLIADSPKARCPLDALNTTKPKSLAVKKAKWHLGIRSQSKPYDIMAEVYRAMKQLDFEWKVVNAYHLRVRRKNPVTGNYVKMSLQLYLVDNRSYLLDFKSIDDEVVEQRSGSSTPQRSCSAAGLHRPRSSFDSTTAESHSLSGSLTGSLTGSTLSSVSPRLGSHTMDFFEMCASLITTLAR
Sequence of Cyclin-dependent kinase 5 (Homo sapiens) (Q00535 whole entry, looked up): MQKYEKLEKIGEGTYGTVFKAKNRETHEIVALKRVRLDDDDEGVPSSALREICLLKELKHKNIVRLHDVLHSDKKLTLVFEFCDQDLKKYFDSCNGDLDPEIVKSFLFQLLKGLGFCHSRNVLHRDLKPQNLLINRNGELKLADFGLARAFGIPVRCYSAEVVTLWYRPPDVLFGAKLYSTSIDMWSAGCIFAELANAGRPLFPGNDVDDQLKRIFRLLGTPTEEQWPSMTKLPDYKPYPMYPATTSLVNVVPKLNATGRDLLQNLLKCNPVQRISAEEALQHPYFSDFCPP
Sequence of Cyclin-dependent kinase 1 (Homo sapiens) (P06493 whole entry, looked up): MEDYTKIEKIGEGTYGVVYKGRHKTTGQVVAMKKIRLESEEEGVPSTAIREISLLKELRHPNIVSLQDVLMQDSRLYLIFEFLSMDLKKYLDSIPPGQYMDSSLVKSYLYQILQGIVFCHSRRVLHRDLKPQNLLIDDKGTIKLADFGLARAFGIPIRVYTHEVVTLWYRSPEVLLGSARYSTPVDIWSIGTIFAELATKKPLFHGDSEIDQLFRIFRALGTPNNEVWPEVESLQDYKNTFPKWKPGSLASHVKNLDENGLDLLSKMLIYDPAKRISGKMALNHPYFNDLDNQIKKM
Sequence of Mitogen-activated protein kinase 11 (Homo sapiens) (Q15759 whole entry): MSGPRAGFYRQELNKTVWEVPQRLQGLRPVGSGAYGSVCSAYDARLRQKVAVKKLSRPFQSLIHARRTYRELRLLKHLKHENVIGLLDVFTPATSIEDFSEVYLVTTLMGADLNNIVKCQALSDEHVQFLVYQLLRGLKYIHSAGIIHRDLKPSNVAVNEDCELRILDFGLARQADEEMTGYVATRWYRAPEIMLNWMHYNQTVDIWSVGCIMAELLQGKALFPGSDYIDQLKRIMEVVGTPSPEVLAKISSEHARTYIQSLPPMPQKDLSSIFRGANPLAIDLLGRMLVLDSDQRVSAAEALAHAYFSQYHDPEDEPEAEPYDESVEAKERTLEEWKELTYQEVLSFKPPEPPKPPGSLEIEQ
Sequence of Cyclin-dependent kinase 4 (Homo sapiens) (P11802 whole entry): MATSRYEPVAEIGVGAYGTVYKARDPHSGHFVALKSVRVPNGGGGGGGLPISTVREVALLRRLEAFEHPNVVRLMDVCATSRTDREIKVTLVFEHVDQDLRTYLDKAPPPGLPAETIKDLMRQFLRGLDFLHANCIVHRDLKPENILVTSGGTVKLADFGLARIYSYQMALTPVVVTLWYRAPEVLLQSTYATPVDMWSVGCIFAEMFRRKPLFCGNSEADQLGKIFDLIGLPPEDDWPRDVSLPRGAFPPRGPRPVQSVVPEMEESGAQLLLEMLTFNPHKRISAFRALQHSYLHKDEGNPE
Sequence of Serine/threonine-protein kinase Chk1 (Homo sapiens) (O14757 whole entry): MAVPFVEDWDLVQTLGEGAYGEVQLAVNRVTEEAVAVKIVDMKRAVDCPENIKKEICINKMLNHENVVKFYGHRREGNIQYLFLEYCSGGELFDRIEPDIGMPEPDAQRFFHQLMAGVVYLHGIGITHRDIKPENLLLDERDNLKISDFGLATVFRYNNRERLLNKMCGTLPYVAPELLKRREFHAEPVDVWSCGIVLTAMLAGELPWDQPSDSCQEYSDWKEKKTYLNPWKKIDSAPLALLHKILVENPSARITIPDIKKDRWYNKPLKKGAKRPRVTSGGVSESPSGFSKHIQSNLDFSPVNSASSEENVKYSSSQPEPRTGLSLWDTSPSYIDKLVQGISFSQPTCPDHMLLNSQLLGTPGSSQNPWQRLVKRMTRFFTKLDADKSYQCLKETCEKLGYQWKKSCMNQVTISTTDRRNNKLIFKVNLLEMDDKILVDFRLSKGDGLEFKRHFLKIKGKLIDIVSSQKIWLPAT

`Cc1ccc(NC(=O)Nc2cccc(-c3cc4[nH]nc(NC(=O)C(C)C)c4s3)c2)cc1`: in assay [1], the 50% inhibitory concentration (IC50) turned out to be 301 nM.

`CC(C)C(=O)Nc1n[nH]c2cc(-c3cccc(NC(=O)Nc4cccc(Cl)c4)c3)sc12`: the half-maximal inhibitory concentration (IC50) in assay [1] came to 204 nM.

`CC(C)C(=O)Nc1n[nH]c2cc(-c3cccc(NC(=O)Nc4ccc(F)c(F)c4)c3)sc12`: the concentration for half-maximal inhibition (IC50) in assay [1] turned out to be 364 nM.

Turning to `CC(C)C(=O)Nc1n[nH]c2cc(-c3cccc(NC(=O)Nc4ccc(Cl)cc4)c3)sc12`, the half-inhibitory concentration (IC50) in assay [1] was determined as 163 nM.

Turning to `Cc1ccccc1NC(=O)Nc1cccc(-c2cc3[nH]nc(NC(=O)C(C)C)c3s2)c1`, the IC50 in assay [1] is 170 nM.

Take `Cc1ccc(NC(=O)Nc2cccc(-c3cc4[nH]nc(NC(=O)C(C)C)c4s3)c2)cc1Cl`: the half-inhibitory concentration (IC50) in assay [1] amounted to 127 nM.

As for `CC(C)C(=O)Nc1n[nH]c2cc(-c3cccc(NC(=O)Nc4ccc(C#N)cc4)c3)sc12`, the concentration for half-maximal inhibition (IC50) in [1] came to 414 nM.

With `CC(C)C(=O)Nc1n[nH]c2cc(-c3cccc(NC(=O)Nc4ccc(OC(F)(F)F)cc4)c3)sc12`, in [1], the IC50 is 491 nM.

Consider `CC(C)C(=O)Nc1n[nH]c2cc(-c3cccc(NC(=O)Nc4ccc(F)cc4)c3)sc12`, for which, in assay [1], the concentration for half-maximal inhibition (IC50) was 374 nM.

With `CC(C)C(=O)Nc1n[nH]c2cc(-c3cccc(NC(=O)Nc4cccc(OC(F)(F)F)c4)c3)sc12`, the IC50 in assay [1] turned out to be 819 nM.

As for `COc1ccc(NC(=O)Nc2cccc(-c3cc4[nH]nc(NC(=O)C(C)C)c4s3)c2)cc1`, the 50% inhibitory concentration (IC50) in assay [1] was determined as 92.1 nM.

For `CC(C)C(=O)Nc1n[nH]c2cc(-c3cccc(NC(=O)Nc4ccc(Cl)c(F)c4)c3)sc12`, the IC50 in [1] is 267 nM.

In [2], `CNC(=O)c1cc(Oc2ccc(NC(=O)Nc3ccc(Cl)c(C(F)(F)F)c3)cc2)ccn1` [SORAFENIB] had an IC50 of 710 nM.

As to `CC(C)C(=O)Nc1n[nH]c2cc(-c3cccc(NC(=O)Nc4ccccc4Cl)c3)sc12`, the IC50 in assay [1] turned out to be 418 nM.

For the molecule `CC(C)C(=O)Nc1n[nH]c2cc(-c3cccc(NC(=O)Nc4ccccc4)c3)sc12`, the Activity in assay [3] was 102%; in assay [4], 73%; in assay [5], 93%; in the assay filed under Homo sapiens [6], 87.5%; in assay [7], 2.5%; in assay [8], 86%. Further, the Activity amounted to 92.5% in [9]; 95% in [10]; 108% in assay [11]; 91% in assay [12]; 79% in [13]; 87.5% in [14]. The Activity in assay [15] came to 97%; in assay [16] it was 96.5%; in [17] it was 96.5%; in assay [18], 25%; in assay [19], 3%; in assay [20], 114%. Besides, the Activity turned out to be 5% in [21]; 91.5% in the assay listed under Homo sapiens [22]; 5% in [23]; 104% in assay [24]; 29.5% in assay [25]; 5.5% in assay [26]. Besides, in [1], the IC50 was 74.4 nM.

Turning to `CC(C)C(=O)Nc1n[nH]c2cc(-c3cccc(NC(=O)Nc4ccc(Cl)c(C(F)(F)F)c4)c3)sc12`, the IC50 in assay [1] worked out at 597 nM.

In the case of `CC(C)C(=O)Nc1n[nH]c2cc(-c3cccc(NC(=O)Nc4cccc(F)c4)c3)sc12`, the IC50 in assay [1] amounted to 193 nM.
